This is an account of results in patent publication US20220008409A1, “CANCER COMBINATION THERAPY USING QUINOLINE CARBOXAMIDE DERIVATIVE” (KABUSHIKI KAISHA YAKULT HONSHA, priority 2018, published 2022).

For one test, the system named is MDA-MB-231 cells. In words: Combination effect of STX-1159 and mTOR inhibitor, WST-8 assay. The class given is cell-based, Human. The note with it: in combination with STX-1159, 48 hours. The method, then:
Human breast cell line MDA-MB-231 cells or MDA-MB-468 cells (in the case of rapamycin) were inoculated on a 96-well plate to 2.5×10^3/100 μL/well or 1.0×10^3/100 μL/well, and cultured under conditions of 5% CO2 and 37° C. To the control group was added DMSO, so as to be a final concentration of 0.05%. Subsequently, the cells were cultured under conditions of 5% CO2 and 37° C. for 48 hours, and the viable cell count was then evaluated by WST-8 assay. […] The absorbance of water-soluble formazan generated by enzymatic activity of mitochondria in cells was measured at 450 nm using a microplate reader (Molecular Devices, Model: SpectraMax Plus).
Human breast cell line MDA-MB-231 cells or MDA-MB-468 cells (in the case of rapamycin) were inoculated on a 96-well plate so as to be 2.5×10^3/100 μL/well or 1.0×10^3/100 μL/well, respectively. The cells were incubated in a CO2 incubator at 37° C. After 24 hours, the supernatant was discarded, and 80 μL of a culture medium for assay was added. […] The mixture was left standing in a CO2 incubator at 37° C. for 48 hours, the supernatant was then removed, and the mixture was washed once with 100 μL of PBS(−). A WST-8 solution diluted by 10 times with the medium for assay was added at 100 μL/well, and the absorbance was measured at a wavelength of 450 nm using a plate reader. CI was calculated from the measured value.
On the technique in general: Formazan colour is commonly taken as a measure of viable cells.

The next test deals with K1. In words: Combination effect by median-effect method, WST-8 assay. The note with it: in combination with STX-1159, 72 hours. The class given is cell-based, Human. From the text:
(§1) NCI-H2228, NCI-H1975, SK-BR-3, Hep3B, MCF-7, Caov-3, A2058, K562 and SUP-B15 were purchased from American Type Culture Collection, SAS and HuH-7 were purchased from National Institutes of Biomedical Innovation, Health and Nutrition, and K1, FTC-133 and Ishikawa were purchased European Collection of Authenticated Cell Cultures. […] Fetal bovine serum (hereinafter, abbreviated as FBS) and MCDB 105 culture medium were purchased from Sigma Aldrich (Cat. Nos. 172012 and 117-500), and RMPI1640 culture medium, DMEM medium, Ham's F-12 medium, MEM medium and IMDM culture medium were purchased Thermo Fisher Scientific (Cat. Nos. A1049101, 11995-065, 11765-054, 11095-080 and 12440-053).
(§2) The agents were singly added one day after the cells were inoculated. […] The absorbance of water-soluble formazan generated by enzymatic activity of mitochondria in cells was measured at 450 nm using a microplate reader (Molecular Devices, Model: SpectraMax Plus). This was evaluated as the viable cell count to calculate a 50% cell growth inhibitory concentration (hereinafter, abbreviated as IC50). The reference dose of each agent was set based on IC50 (Table 3).
(§3) One day after the cells were inoculated, for single groups, STX-1159 and the agents were each added so as to be a final concentration which is ¼ times, ½ times, 1 time, 2 times or 4 times the reference dose, and for combination groups, STX-1159 and the agents were added so as to be a final concentration where STX-1159 and the agents combined were each ¼ times, ½ times, 1 time, 2 times or 4 times the reference dose. […] The fraction affected (hereinafter, abbreviated as fa) was calculated from the following expression:
(§4) fa=1−(viable cell count in agent exposure group)/(viable cell count in control group).
(§5) By a median-effect method using combination effect analyzing software CalcuSyn (HULINKS), the combination index (hereinafter, abbreviated as CI) was calculated from fa obtained when STX-1159 and the agents were exposed alone or in combination. Evaluation of the combination effect was based on grading by CI in Table 4. In calculation of CI, the average of the values from two or more experiments was employed.

A further test deals with FTC-133. The note with it: in combination with STX-1159, 72 hours.
Excerpt: as §1
The cells were inoculated on a 96-well plate to the density shown in Table 2, and were cultured under conditions of 5% CO2 and 37° C. The agents were singly added one day after the cells were inoculated. To the control group was added DMSO, so as to be a final concentration of 0.05%. Subsequently, the cells were cultured under conditions of 5% CO2 and 37° C. for the time shown in Table 2, and the number living cells was evaluated by WST-8 assay. That is, 10 μL of a WST-8 kit solution (Kishida Chemical Co., ltd, Cat. No. 260-96162) was added to each well, and the cells were cultured under conditions of 5% CO2 and 37° C. for 1 to 2 hours. The absorbance of water-soluble formazan generated by enzymatic activity of mitochondria in cells was measured at 450 nm using a microplate reader (Molecular Devices, Model: SpectraMax Plus). This was evaluated as the viable cell count to calculate a 50% cell growth inhibitory concentration (hereinafter, abbreviated as IC50).
The cells were inoculated on a 96-well plate so as to be the density shown in Table 2, and were cultured under conditions of 5% CO2 and 37° C. One day after the cells were inoculated, for single groups, STX-1159 and the agents were each added so as to be a final concentration which is ¼ times, ½ times, 1 time, 2 times or 4 times the reference dose, and for combination groups, STX-1159 and the agents were added so as to be a final concentration where STX-1159 and the agents combined were each ¼ times, ½ times, 1 time, 2 times or 4 times the reference dose. To the control group was added DMSO, so as to be a final concentration of 0.1%. Subsequently, the cells were cultured under conditions of 5% CO2 and 37° C. for the time shown in Table 2, and the number living cells was measured by WST-8 assay. The fraction affected (hereinafter, abbreviated as fa) was calculated from the following expression:
as §4, §5

The next test deals with A2058. In words: Combination effect by median-effect method, WST-8 assay. Format: cell-based, Human. As to conditions: in combination with STX-1159, 72 hours.
Excerpt: as §1, §2, §3, §4, §5

The nature of test [1]: Combination effect by median-effect method, summary over the cell lines of Example 1. The class given is cell-based. As to conditions: in combination with STX-1159; summary of Table 5. The method, then: The fraction affected (hereinafter, abbreviated as fa) was calculated from the following expression: fa=1-(viable cell count in agent exposure group)/(viable cell count in control group). […] Evaluation of the combination effect was based on grading by CI in Table 4. In calculation of CI, the average of the values from two or more experiments was employed.

The next test relates to NCI-H2228. In words: Combination effect by median-effect method, WST-8 assay. Format: cell-based, Human. As to conditions: in combination with STX-1159, 72 hours.
Excerpt: as §1, §2, §3, §4, §5

Regarding `Nc1ncnc2c1c(-c1cnc3[nH]ccc3c1)nn2C1CCCC1` [PP-121], in the test with MDA-MB-231 cells, the CI is on record as 0.88 and the Combination effect result is reported as “Light synergetic effect (0.85 < CI ≤ 0.9)”.
For the compound `c1cncc(CN2CCC(n3ncc4c(N5CCOCC5)nc(-c5ccc6[nH]ccc6c5)nc43)CC2)c1` [WAY-600], in the test with MDA-MB-231 cells, the CI stood at 0.64 and the Combination effect entry was “Synergetic effect (0.3 < CI ≤ 0.7)”.
The like results for `COc1ncc(-c2ccc3nccc(-c4ccnnc4)c3c2)cc1NS(=O)(=O)c1ccc(F)cc1F` [GSK2126458] were, in that order, 0.63 and “Synergetic effect (0.3 < CI ≤ 0.7)”.
For the compound `COc1cc2c(Nc3ccc(Br)cc3F)ncnc2cc1OCC1CCN(C)CC1` [Vandetanib, vandetanib], the CI is 0.69 in the test with K1 and 0.75 with FTC-133. For the same compound, the Combination effect result with K1 is recorded as “Synergetic effect (0.3 < CI ≤ 0.7)”; with FTC-133, “Moderate synergetic effect (0.7 < CI ≤ 0.85)”.
For `COc1cccc2cc(-c3nc([C@H]4CC[C@H](C(=O)O)CC4)n4ncnc(N)c34)[nH]c12` [OSI-027], in the test with MDA-MB-231 cells, the CI turned out to be 0.49 and the Combination effect entry was “Synergetic effect (0.3 < CI ≤ 0.7)”.
Take `CC(C)(C)c1nc(-c2cccc(NS(=O)(=O)c3c(F)cccc3F)c2F)c(-c2ccnc(N)n2)s1` [Dabrafenib, dabrafenib]: in the test with A2058, the CI is recorded as 0.73 and the Combination effect result was “Moderate synergetic effect (0.7 < CI ≤ 0.85)”. Also, the “combination effect by the median-effect method” value in test [1] is listed as “synergetic effect”.
In the case of `COc1ccc(-c2ccc3c(N4CCOCC4)nc(N4C[C@@H](C)O[C@@H](C)C4)nc3n2)cc1CO` [KU-0063794], in the test with MDA-MB-231 cells, the CI came out at 0.36 and the Combination effect result is “Synergetic effect (0.3 < CI ≤ 0.7)”.
On to `C[C@@H](Oc1cc(-c2cnn(C3CCNCC3)c2)cnc1N)c1c(Cl)ccc(F)c1Cl` [Crizotinib], for which, in the test on NCI-H2228, the CI is listed as 0.50 and the Combination effect entry was “Synergetic effect (0.3 < CI ≤ 0.7)”. In test [1], the “combination effect by the median-effect method” value is listed as “synergetic effect”.
`CNC(=O)Nc1ccc(-c2nc(N3CC4CCC(C3)O4)c3cnn(C4CCC5(CC4)OCCO5)c3n2)cc1` [WYE-125132]: in the test with MDA-MB-231 cells, the CI is given as 0.40 and the Combination effect entry is “Synergetic effect (0.3 < CI ≤ 0.7)”.
The like results for `COC(=O)Nc1ccc(-c2nc(N3CCOCC3)c3cnn(C4CCN(Cc5cccnc5)CC4)c3n2)cc1` [WYE-687] were, in that order, 0.85 and “Moderate synergetic effect (0.7 < CI ≤ 0.85)”.
Turning to `COc1ccc(-c2cc3c(C)nc(N)nc3n([C@H]3CC[C@H](OCCO)CC3)c2=O)cn1` [PF-04691502], in the test with MDA-MB-231 cells, the CI was 0.73 and the Combination effect result is “Moderate synergetic effect (0.7 < CI ≤ 0.85)”.
Take `CCC(=O)N1CCN(c2ccc(-n3c(=O)ccc4cnc5ccc(-c6cnc7ccccc7c6)cc5c43)cc2C(F)(F)F)CC1` [Torin 1]: in the test on MDA-MB-231 cells, the CI is given as 0.68 and the Combination effect entry is recorded as “Synergetic effect (0.3 < CI ≤ 0.7)”.
On to `CC(C)n1nc(-c2ccc3oc(N)nc3c2)c2c(N)ncnc21` [INK 128], for which, in the test with MDA-MB-231 cells, the CI came to 0.56 and the Combination effect entry was “Synergetic effect (0.3 < CI ≤ 0.7)”.
In the case of `Cc1c(CN2CCN(C(=O)[C@H](C)O)CC2)sc2c(N3CCOCC3)nc(-c3cnc(N)nc3)nc12` [GDC-0980(RG7422)], in the test on MDA-MB-231 cells, the CI was 0.86 and the Combination effect result is recorded as “Light synergetic effect (0.85 < CI ≤ 0.9)”.
For `CNC(=O)c1cccc(-c2ccc3c(N4CCOC[C@@H]4C)nc(N4CCOC[C@@H]4C)nc3n2)c1` [AZD2014], in the test with MDA-MB-231 cells, the CI worked out at 0.51 and the Combination effect entry is “Synergetic effect (0.3 < CI ≤ 0.7)”.
For the compound `Oc1cccc(-c2nc(N3CCOCC3)c3oc4ncccc4c3n2)c1` [PI-103], in the test with MDA-MB-231 cells, the CI is given as 0.60 and the Combination effect entry is given as “Synergetic effect (0.3 < CI ≤ 0.7)”.
For the compound `Nc1ccc(-c2ccc3ncc4ccc(=O)n(-c5cccc(C(F)(F)F)c5)c4c3c2)cn1` [Torin 2], in the test with MDA-MB-231 cells, the CI came to 0.66 and the Combination effect result is listed as “Synergetic effect (0.3 < CI ≤ 0.7)”.
The like results for `O=C1NC(=O)/C(=C/c2ccc3nccc(-c4ccncc4)c3c2)S1` [GSK1059615] were, in that order, 0.64 and “Synergetic effect (0.3 < CI ≤ 0.7)”.
For the compound `COc1ccc(-c2ccc3c(N4CCOC[C@@H]4C)nc(N4CCOC[C@@H]4C)nc3n2)cc1CO` [AZD8055], in the test with MDA-MB-231 cells, the CI is recorded as 0.36 and the Combination effect result is on record as “Synergetic effect (0.3 < CI ≤ 0.7)”.
On to `CC(C)n1nc(-c2cc3cc(O)ccc3[nH]2)c2c(N)ncnc21` [PP242], for which, in the test on MDA-MB-231 cells, the CI is recorded as 0.84 and the Combination effect result was “Moderate synergetic effect (0.7 < CI ≤ 0.85)”.
`Cc1cc(Nc2ncc(Cl)c(Nc3ccccc3S(=O)(=O)C(C)C)n2)c(OC(C)C)cc1C1CCNCC1` [Ceritinib, ceritinib]: in the test on NCI-H2228, the CI turned out to be 0.34 and the Combination effect result was “Synergetic effect (0.3 < CI ≤ 0.7)”. In test [1], the “combination effect by the median-effect method” value is on record as “synergetic effect”.
As to `CC(=O)Nc1cccc(-n2c(=O)n(C3CC3)c(=O)c3c(Nc4ccc(I)cc4F)n(C)c(=O)c(C)c32)c1` [Trametinib, trametinib], in the test on A2058, the CI stood at 0.78 and the Combination effect entry is given as “Moderate synergetic effect (0.7 < CI ≤ 0.85)”.
As for `CN(C)C1CCN(C(=O)c2ccc(NC(=O)Nc3ccc(-c4nc(N5CCOCC5)nc(N5CCOCC5)n4)cc3)cc2)CC1` [PF-05212384(PKI-587)], in the test on MDA-MB-231 cells, the CI is on record as 0.63 and the Combination effect result is listed as “Synergetic effect (0.3 < CI ≤ 0.7)”.
